Structures are written as SMILES.

In the experiment the target is T1, CDK7/CycH/Mat1 (Homo sapiens, UniProt P50613).
T1 construct: purchased Carna
T1 sequence (P50613 whole entry): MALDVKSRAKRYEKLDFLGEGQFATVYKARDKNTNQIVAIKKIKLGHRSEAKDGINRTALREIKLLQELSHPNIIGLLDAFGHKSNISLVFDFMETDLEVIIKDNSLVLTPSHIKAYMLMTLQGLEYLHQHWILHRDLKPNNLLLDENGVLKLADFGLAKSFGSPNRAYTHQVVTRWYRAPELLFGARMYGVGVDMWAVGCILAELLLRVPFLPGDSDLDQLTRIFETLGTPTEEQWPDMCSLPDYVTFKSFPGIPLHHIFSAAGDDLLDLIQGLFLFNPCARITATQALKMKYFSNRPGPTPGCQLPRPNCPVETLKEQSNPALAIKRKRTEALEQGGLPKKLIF
T1 sequence (P51946 whole entry partner): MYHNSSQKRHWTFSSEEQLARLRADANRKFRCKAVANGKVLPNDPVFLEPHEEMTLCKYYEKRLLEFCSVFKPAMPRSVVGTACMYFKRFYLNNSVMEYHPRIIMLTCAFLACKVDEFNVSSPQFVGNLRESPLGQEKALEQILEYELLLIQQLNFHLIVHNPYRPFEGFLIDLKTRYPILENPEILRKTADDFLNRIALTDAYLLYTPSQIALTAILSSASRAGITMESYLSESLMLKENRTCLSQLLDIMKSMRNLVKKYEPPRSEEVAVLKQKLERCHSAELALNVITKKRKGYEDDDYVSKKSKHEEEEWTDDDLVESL
T1 sequence (P51948 whole entry partner): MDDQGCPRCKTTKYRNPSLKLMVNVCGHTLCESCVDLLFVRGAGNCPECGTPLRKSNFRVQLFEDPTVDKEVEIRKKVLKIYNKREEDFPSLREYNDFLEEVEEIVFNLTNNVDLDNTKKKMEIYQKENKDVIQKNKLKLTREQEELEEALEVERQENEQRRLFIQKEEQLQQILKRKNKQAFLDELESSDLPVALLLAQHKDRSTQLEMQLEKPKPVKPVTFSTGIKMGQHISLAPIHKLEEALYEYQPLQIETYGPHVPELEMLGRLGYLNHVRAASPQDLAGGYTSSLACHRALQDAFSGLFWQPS
Put plainly: CDK7 Enzymatic Activity Assay (Lance Kinase Activity Assay, FRET). It counts as biochemical. The following applies: Table 5A; 25 μM ATP final; read-out: CDK7: IC50 [mM] for CDK7 inhibition (the above defined ranges apply). On the procedure: This protocol describes how the Lance Kinase Activity Assay was performed to determine IC50 values of compounds of general formula (I) against CDK/Cyclin complexes. The principle behind this enzymatic assay is based upon the phosphorylation of the Ulight-Peptide Substrat. It is detected by using a specific EU-labeled anti-phospho peptide antibody.
Binding of an inhibitor to the kinase prevents phosphorylation of the ULlight-MBP Substrat, resulting in a loss of FRET.
CDK7 Enzymatic Activity Assay
The compounds of general formula (I) exemplary summarized in Table 1 were diluted from a 10 mM DMSO stock solution 1:10 in a total volume of 15 μl DMSO. This compound predilution was then serial diluted 1:3 over 8 steps in DMSO and briefly spun down. Each compound solution was now diluted 1:20 in Enzymatic Buffer (HEPES: 50 mM, pH: 7.5; MgCl2: 10 mM; EGTA: 1 mM; DTT: 2 mM; Tween-20: 0.01%), mixed thoroughly and spun down.
For positive controls, 2 μl of DMSO working solution were mixed with 6 μl CDK7/CycH/Mat1/substrate working solution and 2 μl ATP working solution. Positive and negative controls were calculated from at least 8 different wells. The 384 well plates were mixed in a Teleshaker plate mixer (Beckman Coulter, Brea, Calif., USA) at 2000 rpm for 40 sec, and incubated for 1 h at room temperature before addition of 10 μl LANCE Detection Buffer (1×; EDTA: […]; Eu-Anti-P-MBP: 4 nM) per well. Plates were mixed in a Teleshaker plate mixer (Beckman Coulter, Brea, Calif., USA) at 2000 rpm for 40 sec, followed by incubation with Detection Buffer for 1 h, and reading. […] IC50 values were determined from the sigmoidal dose response curves with the software Quattro Workflow (Quattro GmbH, Munich, Germany).
The term IC50 denotes the concentration that inhibits the measured activity by half. With `CC(C)c1cnn2c(N[C@@H](C)c3ccccc3)nc(OCCC3CCNCC3)nc12` [(VII-g), (S)-8-isopropyl-N-(1-phenylethyl)-2-(2-(piperidin-4-yl)ethoxy)pyrazolo[1,5-a][1,3,5]triazin-4-amine], the IC50 was less than 10 nM. With `CC(C)c1cnn2c(N[C@@H](C)c3ccccc3)nc(O[C@H]3CCNC3)nc12` [(VII-h), 8-isopropyl-N-((S)-1-phenylethyl)-2-((S)-pyrrolidin-3-yloxy)pyrazolo[1,5-a][1,3,5]triazin-4-amine] the figure was less than 10 nM.

Turning to `CC(C)c1cnn2c(N[C@@H](C)c3ccccc3)nc(N[C@@H]3CCCNC3)nc12` [(VIII-f), 8-isopropyl-N4-((S)-1-phenylethyl)-N2-((R)-piperidin-3-yl)pyrazolo[1,5-a][1,3,5]triazine-2,4-diamine], the half-maximal inhibitory concentration (IC50) lay within 30 to 100 nM. For `CC(C)c1cnn2c(N[C@@H](C)c3ccccc3)nc(OC3CCN(C)C3)nc12` (stereo partly drawn) [(VII-f), 8-isopropyl-2-((1-methylpyrrolidin-3-yl)oxy)-N-((S)-1-phenylethyl)pyrazolo[1,5-a][1,3,5]triazin-4-amine], the concentration for half-maximal inhibition (IC50) is 10 to 30 nM. With `COc1cccc([C@H](C)Nc2nc([S+]([O-])C3CCNCC3)nc3c(C(C)C)cnn23)c1` (stereo partly drawn) [(X-b), 8-isopropyl-N-((S)-1-(3-methoxyphenyl)ethyl)-2-(piperidin-4-ylsulfinyl)pyrazolo[1,5-a][1,3,5]triazin-4-amine] the figure was less than 10 nM. The result for `CC(C)c1cnn2c(N[C@@H](C)c3ccccc3)nc(OC3CCN(C)CC3)nc12` [(VII-X), (S)-8-isopropyl-2-((1-methylpiperidin-4-yl)oxy)-N-(1-phenylethyl)pyrazolo[1,5-a][1,3,5]triazin-4-amine] reads less than 10 nM. The result for `CC(C)c1cnn2c(N[C@@H](C)c3ccccc3)nc(OC3CCNCC3)nc12` [(VII-b), (S)-8-isopropyl-N-(1-phenylethyl)-2-(piperidin-4-yloxy)pyrazolo[1,5-a][1,3,5]triazin-4-amine] reads less than 10 nM; that for `COc1ccccc1[C@H](C)Nc1nc(N2CCC(N)CC2)nc2c(C(C)C)cnn12` [(VIII-c), (S)-2-(4-aminopiperidin-1-yl)-8-isopropyl-N-(1-(2-methoxyphenyl)ethyl)pyrazolo[1,5-a][1,3,5]triazin-4-amine], less than 10 nM. For the compound `COc1ccccc1[C@H](C)Nc1nc(OC2CCNCC2)nc2c(C(C)C)cnn12` [(VII-o), (S)-8-isopropyl-N-(1-(2-methoxyphenyl)ethyl)-2-(piperidin-4-yloxy)pyrazolo[1,5-a][1,3,5]triazin-4-amine], the half-inhibitory concentration (IC50) was less than 10 nM.

In the case of `CC(C)c1cnn2c(N[C@@H](C)c3ccccc3)nc(OCC3CCNCC3)nc12` [(VII-c), (S)-8-isopropyl-N-(1-phenylethyl)-2-(piperidin-4-ylmethoxy)pyrazolo[1,5-a][1,3,5]triazin-4-amine], the half-inhibitory concentration (IC50) is less than 10 nM.

In the case of `CC(C)C[C@H](Nc1nc(O[C@@H]2CCCNC2)nc2c(C(C)C)cnn12)c1ccccc1` [(VII-u), 8-isopropyl-N-((S)-3-methyl-1-phenylbutyl)-2-((R)-piperidin-3-yloxy)pyrazolo[1,5-a][1,3,5]triazin-4-amine], the IC50 was 30 to 100 nM. With `CC(C)c1cnn2c(N[C@@H](C)c3ccccc3)nc(N3CCC(N)CC3)nc12` [(VIII-b), (S)-2-(4-aminopiperidin-1-yl)-8-isopropyl-N-(1-phenylethyl)pyrazolo[1,5-a][1,3,5]triazin-4-amine] the figure was 10 to 30 nM; with `CC(C)c1cnn2c(N[C@@H](C)c3ccccc3)nc(OC3CCN(CCCN)CC3)nc12` [(VII-d), (S)-2-((1-(3-aminopropyl)piperidin-4-yl)oxy)-8-isopropyl-N-(1-phenylethyl)pyrazolo[1,5-a][1,3,5]triazin-4-amine], less than 10 nM.

Regarding `COc1ccccc1[C@H](C)Nc1nc(OC2CCN(C)CC2)nc2c(C(C)C)cnn12` [(VII-z), (S)-8-isopropyl-N-(1-(2-methoxyphenyl)ethyl)-2-((1-methylpiperidin-4-yl)oxy)pyrazolo[1,5-a][1,3,5]triazin-4-amine], the IC50 is less than 10 nM.

The values above are taken from US9096608B2, “Pharmaceutically active pyrazolo-triazine derivatives” (LEAD DISCOVERY CENTER GMBH, priority 2012, dated 2015).
